Entries after “also recorded” stand apart in the source; their conditions may differ.
Test system: Atf3^−/− mice
Assay: Trace fear conditioning (contextual and tone freezing tests) after intracranial infusion of cytochalasin D
Type: in vivo
Procedure: The habituation session was performed similarly to the DFC. The mice were divided into three groups (WT: n=15; Atf3^+/−: n=10; Atf3^−/−: n=16) and placed in the conditioning chamber for 15 min per day for 3 days. On Day 4, they underwent three trace fear conditioning trials: a 20-s tone (6000 Hz, 85 dB; CS), followed by a 10-s time interval, and then a 1-s foot shock (2 mA; US). Twenty-four hours later, the mice were placed in the same conditioning chamber for 6 min with neither tone nor foot shock for contextual testing. One hour after the contextual test, the mice were placed in a novel chamber for a tone test, which was performed as follows: 1 min with neither tone nor foot shock followed by a 6-min tone (6000 Hz, 85 dB). Freezing behaviors were recorded and analyzed using the FreezeScan software, and the freezing percentage was calculated using the aforementioned formula.
At 14 weeks of age, mice (Atf3^+/−: n=5, Atf3^−/−: n=9) were anesthetized using a mixture of ketamine, xylazine, and saline (0.55 mL/25 g) in accordance with the regulations of the Lab Animal Center, Tzu Chi University, Taiwan. Mouse heads were restrained in stereotaxic apparatus to ensure movement restriction during surgery. […] After surgery, the mice were placed in their respective cages to recover for 4 days and were then tested for TFC. Habituation was performed as described in the trace fear conditioning protocol. Using a Hamilton syringe, the actin depolymerizing agent cytochalasin D (Sigma-Aldrich, MO, USA, catalogue No. C8273), dissolved in dimethyl sulfoxide at a concentration of 25 μg/μL, was infused at a rate of 0.5 μL/min for 1 min immediately after fear conditioning on Day 4. Twenty-four hours later, contextual and tone testing was performed as previously described. A few mice were unable to perform the tasks because of loss of mobility after surgery; the data for these mice are not included. Mice were transcardially perfused, and their brains were incubated in Golgi-Cox staining solution.

## C=C1[C@@H](C)[C@H]2[C@H](Cc3ccccc3)NC(=O)[C@]23[C@H](OC(C)=O)/C=C/[C@@](C)(O)C(=O)[C@@H](C)C/C=C/[C@H]3[C@@H]1O [cytochalasin D]
Atf3^−/− mice, cytochalasin D 25 μg/μL in DMSO infused at 0.5 μL/min for 1 min immediately after trace fear conditioning, contextual test 24 h later, compared with Atf3^−/− mice treated with saline (FIG. 5G)
  Freezing percentage to context: significantly lower
Atf3^−/− mice, cytochalasin D 25 μg/μL in DMSO infused at 0.5 μL/min for 1 min immediately after trace fear conditioning, tone test 24 h later, compared with Atf3^−/− mice treated with saline (FIG. 5H)
  Freezing percentage to tone: significantly lower
Hippocampal / intracranial infusion of cytochalasin D, summary statement, context or tone test not specified
  Freezing behavior (fear phenotype) of Atf3^−/− mice: reversed the phenotype of Atf3^−/− mice; also recorded: reduced the freezing behavior of the Atf3^−/− mice to a wild-type mouse level
